{
  "source": "patent US20220375548A1",
  "about": "“FRAGRANCE COMPOSITION TONALITY DETERMINATION METHOD, FRAGRANCE COMPOSITION DETERMINATION METHOD AND CORRESPONDING SYSTEMS” (FIRMENICH SA, priority 2019, published 2022)",
  "molecular_target": "T1, OR7A17 (Homo sapiens, UniProt O14581)",
  "T1 sequence (O14581 1-309)": "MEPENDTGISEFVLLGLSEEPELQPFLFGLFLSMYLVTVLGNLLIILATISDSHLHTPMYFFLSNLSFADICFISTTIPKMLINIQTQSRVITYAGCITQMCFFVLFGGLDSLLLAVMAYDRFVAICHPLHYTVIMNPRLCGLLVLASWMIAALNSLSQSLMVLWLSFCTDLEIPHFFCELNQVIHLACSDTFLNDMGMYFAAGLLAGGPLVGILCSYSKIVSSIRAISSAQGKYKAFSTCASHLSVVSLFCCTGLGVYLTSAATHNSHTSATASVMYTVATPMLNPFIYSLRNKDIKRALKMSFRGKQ",
  "test": "odorant receptor activation (Example 3 in U.S. 62/911,096)",
  "assay_type": "cell-based",
  "details": "associated with blonde woody tonality",
  "source_text": "Non-limiting examples of an olfactory tonality include earthy, coconut, celery, hay etc. (see Example 1 in U.S. 62/911,096). For example, OR11A1 agonists all share a common earthy tonality even as they elicit an overall set of distinct tonalities (see Example 2 in U.S. 62/911,096). A volatile molecule may have greater than one tonality. For example, beta ionone has violet and blonde woody tonalities arising from the activation of OR5A1 and OR7A17, respectively (see Example 3 in U.S. 62/911,096).\nThe first relationship may be obtained by putting into contact a sample of volatile molecules with isolated ORs and by monitoring the activity of each said OR. The result of such an experiment may be stored inside a database cross referencing volatile molecule digital identifiers, representative of real volatile molecules, and the impact of said volatile molecule on the ORs monitored during the experiment.\nIndicators for monitoring the activity of olfactory receptors include, for example, a fluorescent calcium indicator dye, a calcium indicator protein (e.g. GCaMP, a genetically encoded calcium indicator), a fluorescent cAMP indicator, a cell mobilization assay, a cellular dynamic mass redistribution assay, a label-free cell based assay, a cAMP response element (CRE) mediated reporter protein, a biochemical cAMP HTRF assay, a beta-arrestin assay, or an electrophysiological recording. […]",
  "data": [
    {"smiles": "CC(=O)/C=C/C1=C(C)CCCC1(C)C", "note": "[beta ionone]", "values": [
      {"measurement": "activation of OR7A17", "value": "activation"}
    ]}
  ]
}
